Patent US8895717B2, “Delivery of siRNA by neutral lipid compositions” (The Board of Regents of the University of Texas System, priority 2005, dated 2014)
d = 2'-deoxy (DNA); r = 2'-OH (RNA)

Experiments:
HeyA8 orthotopic model = experiment: Angiogenesis (MVD), proliferation (PCNA), apoptosis (TUNEL), VEGF and MMP-9 in harvested tumors; format: in vivo, nude mice; conditions: for endothelial cell apoptosis: CD31 and TUNEL dual localization
Method: Expression of PCNA was determined by IHC analysis using paraffin-embedded tumors. Sections (8-μm thick) were deparaffinized in xylene, treated with a graded series of alcohol [100%, 95%, 80% ethanol/double distilled H2O (v/v)], and rehydrated in PBS (pH 7.5). Antigen retrieval was performed by microwave heating for 5 minutes in 0.1 M citrate buffer pH 6.0, followed by blocking of endogenous […] with 3% H2O2 in methanol for 5 min. After PBS wash ×2, slides were blocked with 5% normal horse serum and 1% normal goat serum in PBS for 15 min at room temperature, followed by incubation with primary antibody (anti-PCNA, PC-10, mouse IgG, Dako), in blocking solution overnight at 4° C. After two PBS washes, the appropriate secondary antibody conjugated to horseradish peroxidase, in blocking solution, was added for 1 hour at room temperature. HRP was detected with DAB (Phoenix Biotechnologies, Huntsville, Ala.) substrate for 5 minutes, washed, and counterstained with Gil No. 3 hematoxylin (Sigma) for 20 sec. IHC for CD31 was performed on freshly cut frozen tissue. […] The primary antibody used was anti-CD31 (PECAM-1, rat IgG, Pharmingen). Staining for PCNA and CD31 was conducted on tumors collected at the conclusion of 4 week therapy trials.
To quantify MVD, 10 random 0.159-mm^2 fields at ×100 final magnification were examined for each tumor (1 slide per mouse, 5 slides per group), and the number of microvessels per field were counted. A single microvessel was defined as a discrete cluster or single cell stained positive for CD31 (CD31), and the presence of a lumen was required for scoring as a microvessel. To quantify PCNA expression, the number of positive cells (DAB staining) was counted in 10 random 0.159-mm^2 fields at ×100 magnification. To quantify TUNEL positive cells, the number of green fluorescence positive cells was counted in 10 random 0.01-mm^2 fields at ×400 magnification.
Expression of PCNA was determined by IHC analysis using paraffin-embedded tumors. Sections (8-μm thick) were mounted on positively charged Superfrost slides (Fisher Scientific Co., Houston, Tex.) and dried overnight. Sections were deparaffinized in xylene, treated with a graded series of alcohol [100%, 95%, 80% ethanol/double distilled H2O (v/v)], and rehydrated in PBS (pH 7.5). Antigen was retrieved by placing the slides in water and then boiling them in a microwave on high power for 5 min. Expression of CD31 was determined using fresh frozen tissues that were cut into 4-μm thick sections and mounted on positively charged slides. The slides were stored at −80° C.; sections were fixed in cold acetone for 10 min. and then washed twice with PBS for 3 min each time. A positive reaction was visualized by incubating the slides with stable 3,3 diaminobenzidine for 10-20 min. The sections were rinsed with distilled water, counterstained with Gill's hematoxylin for 1 min and mounted with Universal mount (Research Genetics).
To determine potential mechanisms underlying the efficacy of anti-FAK based therapy, its effects on several biological endpoints were examined, including angiogenesis (MVD), proliferation (PCNA), and apoptosis (TUNEL). Due to growing evidence related to FAK and tumor angiogenesis (Kornberg et al., 2004; Mitra et al., 2005). The inventors evaluated vessel density (FIG. 14B) in the tumors harvested from the studies described above. […]

caspase-3 = experiment: Caspase-3 activity in ovarian cancer cells (DEVD-AFC); format: cell-based, human; conditions: taxane-sensitive and taxane-resistant cell lines
Method: Ovarian cancer cells (1×10^6) in culture (six-well plates) were treated with or without docetaxel at the cell line specific IC50 or IC90 concentration for 24 hours. After washing with PBS, cells were lysed in 50 μL of cell lysis buffer provided. Caspase-3, caspase-8, and caspase-9 activities were measured with the appropriate apoptosis detection kit (BD Biosciences/Clontech, Palo Alto, Calif.), using substrate DEVD-AFC for caspase-3, IETD-AFC for caspase-8, and LEHD-AMC for caspase-9.

Substance | endothelial cell apoptosis (HeyA8 orthotopic model) | mean MVD compared with empty liposomes (HeyA8 orthotopic model; CD31 staining) | VEGF and MMP-9 expression (HeyA8 orthotopic model; IHC) | PCNA expression compared to empty liposome or control siRNA (HeyA8 orthotopic model; mouse, in vivo) | caspase-3 activity, siRNA alone (caspase-3)
FAK siRNA: sense r(CCACCUGGGCCAGUAUUAU)d(TT), antisense r(AUAAUACUGGCCCAGGUGG)d(TT); for in vivo delivery incorporated into DOPC (sense CCACCUGGGCCAGUAUUAUTT; antisense AUAAUACUGGCCCAGGUGGTT; sugars from the 5' end r19 d2, backbone not given here) | significantly increased | mean MVD was reduced | substantially reduced | Minimal reduction of PCNA expression | did not potentiate the activity of caspase-3
control siRNA: sense r(UUUUCCGAACGUGUCACGU)dTT, antisense r(ACGUGACACGUUCGGAGAA)dTT, no homology with human mRNA; in vivo in DOPC (sense UUUUCCGAACGUGUCACGUTT; antisense ACGUGACACGUUCGGAGAATT; sugars from the 5' end r19 d2, backbone not given here) | no apotosis seen in endothelial cells |  |  |  | did not potentiate the activity of caspase-3
